Holding throughout (assay): relative cell number vs DMSO control (72 h) (% of DMSO); higher = less growth inhibition (more cells)
Holding throughout (details): sgRNA knockout: sgNT

One experiment deals with BT-20. The method, then:
(§1)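 QMAP-Seq: a pool of 5 breast cancer cell lines (ZR-75-1, SKBR3, HCC-38, MDA-MB-231, BT-20), each carrying 12 doxycycline-inducible Cas9 sgRNA perturbations (11 knockouts plus non-targeting sgNT), was treated with compounds for 72 h at four 10-fold doses (10 nM-10 uM or 1 nM-1 uM range). Barcodes were amplified and sequenced, and cell number was interpolated from 293T spike-in standard curves. The result is expressed as % of the median of DMSO wells. Two biological replicates.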

The test system of a further experiment is HCC-38. Here is the method: as §1
A further experiment has as its system MDA-MB-231. The method, then:
as §1

The next experiment concerns SKBR3. Here is the method:
as §1

The test system of the next experiment is ZR-75-1. Here is the method: as §1

The values that follow come from the supplement of paper PMC7661543.

± gives the standard deviation of the averaged measurements.

Regarding `C[C@@H](Oc1cc(-n2cnc3ccc(CN4CCN(C)CC4)cc32)sc1C(N)=O)c1ccccc1C(F)(F)F`, the relative cell number is 48.1 ± 11 in the experiment on BT-20 (10 nM); 26.1 ± 17 in the experiment with BT-20 (100 nM); 31.8 ± 0.68 in the experiment on BT-20 (1000 nM); 23.3 ± 2.4 in the experiment with BT-20 (10000 nM); 23.8 ± 3.1 in the experiment with HCC-38 (10 nM); 16.7 ± 4.5 in the experiment with HCC-38 (100 nM). Moreover, the relative cell number with HCC-38 (1000 nM) was found to be 17.3 ± 0.54; in the experiment with HCC-38 (10000 nM), 17.6 ± 4.5; in the experiment with MDA-MB-231 (10 nM), 40.66 ± 0.27; in the experiment on MDA-MB-231 (100 nM), 19.5 ± 2.2; in the experiment with MDA-MB-231 (1000 nM) it was 12.5 ± 0.32; in the experiment with MDA-MB-231 (10000 nM), 8.66 ± 5.4. The relative cell number was 13.6 ± 4.1 in the experiment on SKBR3 (10 nM); 13.5 ± 1.8 in the experiment on SKBR3 (100 nM); 13.4 ± 4.3 with SKBR3 (1000 nM); 23.5 ± 4.7 in the experiment with SKBR3 (10000 nM); 112 ± 14 in the experiment with ZR-75-1 (10 nM); 22.1 ± 8.8 in the experiment on ZR-75-1 (100 nM). Moreover, the relative cell number in the experiment with ZR-75-1 (1000 nM) came to 27.7 ± 3.9; in the experiment on ZR-75-1 (10000 nM) it was 29.7 ± 12.
With `CCNC(=O)c1noc(-c2cc(C(C)C)c(O)cc2O)c1-c1ccc(CN2CCOCC2)cc1` [NVPAUY922], the relative cell number with BT-20 (1 nM) was found to be 96.7 ± 24; in the experiment on BT-20 (10 nM) it was 81.1 ± 1.5; in the experiment with BT-20 (100 nM), 48 ± 3.7; with BT-20 (1000 nM) it was 37.9 ± 5.3; in the experiment on HCC-38 (1 nM), 112 ± 16; with HCC-38 (10 nM), 67.6 ± 2.1. For the same compound, the relative cell number is 31.7 ± 5.1 with HCC-38 (100 nM); 30 ± 6 with HCC-38 (1000 nM); 111 ± 40 with MDA-MB-231 (1 nM); 71.4 ± 5.7 in the experiment with MDA-MB-231 (10 nM); 16 ± 4.2 in the experiment with MDA-MB-231 (100 nM); 9.36 ± 1.3 with MDA-MB-231 (1000 nM). Moreover, the relative cell number in the experiment with SKBR3 (1 nM) was found to be 116 ± 31; with SKBR3 (10 nM), 78.6 ± 19; in the experiment on SKBR3 (100 nM), 30 ± 8.8; with SKBR3 (1000 nM), 18.5 ± 5.7; with ZR-75-1 (1 nM), 107 ± 6.7; in the experiment on ZR-75-1 (10 nM) it was 89.8 ± 44. The relative cell number in the experiment with ZR-75-1 (100 nM) was 27.1 ± 1.1; in the experiment on ZR-75-1 (1000 nM), 25.7 ± 6.9.
For the compound `C=C(C)[C@@H]1CC[C@]2(C(=O)O)CC[C@]3(C)[C@H](CC[C@@H]4[C@@]5(C)CC[C@H](O)C(C)(C)[C@@H]5CC[C@]43C)[C@@H]12` [BetulinicAcid], the relative cell number turned out to be 86.7 ± 12 with BT-20 (10 nM); 78.6 ± 3.6 in the experiment on BT-20 (100 nM); 86.4 ± 13 with BT-20 (1000 nM); 108 ± 1.7 with BT-20 (10000 nM); 106 ± 10 with HCC-38 (10 nM); 82.2 ± 9.4 with HCC-38 (100 nM). Further, the relative cell number with HCC-38 (1000 nM) came out at 98 ± 32; in the experiment with HCC-38 (10000 nM), 96.4 ± 1.5; in the experiment with MDA-MB-231 (10 nM), 74.3 ± 2.1; in the experiment with MDA-MB-231 (100 nM) it was 92.9 ± 11; in the experiment with MDA-MB-231 (1000 nM), 69.8 ± 21; in the experiment with MDA-MB-231 (10000 nM), 117 ± 24. In addition, the relative cell number in the experiment with SKBR3 (10 nM) was determined as 76.3 ± 23; in the experiment on SKBR3 (100 nM) it was 95 ± 13; in the experiment on SKBR3 (1000 nM), 86 ± 5.5; in the experiment on SKBR3 (10000 nM), 96.4 ± 11; in the experiment on ZR-75-1 (10 nM), 90.9 ± 11; in the experiment with ZR-75-1 (100 nM), 97.1 ± 4.8. For the same compound, the values for the relative cell number in the experiment on ZR-75-1 (1000 nM) and in the experiment on ZR-75-1 (10000 nM) were 94.5 ± 43 and 110 ± 11, respectively.
Turning to `CC(C)CC(=O)Nc1n[nH]c2c1CN(C(=O)C1CCN(C)CC1)C2(C)C`, the relative cell number in the experiment with BT-20 (10 nM) amounted to 114 ± 22; in the experiment with BT-20 (100 nM), 66.5 ± 1.9; in the experiment with BT-20 (1000 nM), 43.3 ± 19; in the experiment on BT-20 (10000 nM) it was 24.3 ± 1; in the experiment on HCC-38 (10 nM), 112 ± 16; with HCC-38 (100 nM), 76.6 ± 10. Further, the relative cell number turned out to be 42.4 ± 2 in the experiment with HCC-38 (1000 nM); 20.3 ± 0.83 in the experiment on HCC-38 (10000 nM); 112 ± 3.1 with MDA-MB-231 (10 nM); 59.02 ± 0.15 in the experiment on MDA-MB-231 (100 nM); 18.8 ± 1.3 with MDA-MB-231 (1000 nM); 11 ± 4.8 in the experiment with MDA-MB-231 (10000 nM). In addition, the relative cell number in the experiment with SKBR3 (10 nM) is 108 ± 26; in the experiment on SKBR3 (100 nM), 61.4 ± 27; with SKBR3 (1000 nM), 30 ± 7.5; in the experiment with SKBR3 (10000 nM) it was 11.8 ± 1.6; in the experiment with ZR-75-1 (10 nM) it was 70.6 ± 6.3; with ZR-75-1 (100 nM) it was 60.4 ± 13. Moreover, the relative cell number in the experiment with ZR-75-1 (1000 nM) was found to be 31.4 ± 19; in the experiment with ZR-75-1 (10000 nM), 23.7 ± 10.
Regarding `CCN1CCN(c2ccc(Nc3cc(N(C)C(=O)Nc4c(Cl)c(OC)cc(OC)c4Cl)ncn3)cc2)CC1` [BGJ398], the relative cell number in the experiment on BT-20 (10 nM) was 80.6 ± 10; in the experiment on BT-20 (100 nM), 104 ± 1.5; in the experiment on BT-20 (1000 nM), 88.5 ± 15; in the experiment with BT-20 (10000 nM), 82.8 ± 18; in the experiment with HCC-38 (10 nM), 93.6 ± 16; with HCC-38 (100 nM), 66.73 ± 0.28. Moreover, the relative cell number is 60.5 ± 4.7 in the experiment with HCC-38 (1000 nM); 58.5 ± 0.79 in the experiment with HCC-38 (10000 nM); 81.7 ± 12 in the experiment on MDA-MB-231 (10 nM); 83.1 ± 16 in the experiment on MDA-MB-231 (100 nM); 116 ± 2.1 in the experiment with MDA-MB-231 (1000 nM); 65.2 ± 12 in the experiment with MDA-MB-231 (10000 nM). The relative cell number worked out at 99.1 ± 6.7 with SKBR3 (10 nM); 106 ± 32 in the experiment with SKBR3 (100 nM); 67.6 ± 6.6 in the experiment with SKBR3 (1000 nM); 75 ± 18 with SKBR3 (10000 nM); 77.02 ± 0.32 in the experiment with ZR-75-1 (10 nM); 116 ± 13 in the experiment on ZR-75-1 (100 nM). Also, the results for the relative cell number in the experiment with ZR-75-1 (1000 nM) and in the experiment with ZR-75-1 (10000 nM) were 105 ± 14 and 78.1 ± 26, respectively.
On to `S=c1nc[nH]c2nc[nH]c12` [6-Mercaptopurine], for which the relative cell number in the experiment with BT-20 (10 nM) amounted to 97.8 ± 13; in the experiment on BT-20 (100 nM) it was 101 ± 4.8; with BT-20 (1000 nM), 85.3 ± 6; with BT-20 (10000 nM) it was 62.7 ± 4.4; in the experiment with HCC-38 (10 nM), 99.6 ± 7; in the experiment on HCC-38 (100 nM) it was 99.7 ± 5.1. Besides, the relative cell number in the experiment on HCC-38 (1000 nM) is 81.3 ± 10; with HCC-38 (10000 nM) it was 61.3 ± 2.1; with MDA-MB-231 (10 nM) it was 120 ± 2.9; with MDA-MB-231 (100 nM) it was 79.8 ± 1.3; in the experiment with MDA-MB-231 (1000 nM), 60.6 ± 15; in the experiment on MDA-MB-231 (10000 nM), 63.5 ± 7.8. Further, the relative cell number stood at 112 ± 11 with SKBR3 (10 nM); 83.1 ± 39 in the experiment on SKBR3 (100 nM); 78.3 ± 21 in the experiment on SKBR3 (1000 nM); 48.4 ± 25 in the experiment with SKBR3 (10000 nM); 100 ± 55 in the experiment with ZR-75-1 (10 nM); 66.5 ± 5.7 with ZR-75-1 (100 nM). For the same compound, the relative cell number in the experiment on ZR-75-1 (1000 nM) came to 100 ± 59; in the experiment on ZR-75-1 (10000 nM), 55.5 ± 22.
